Results published in patent US9670550B2, “Method for examination of carcinogenic risk” (JAPANESE FOUNDATION FOR CANCER RESEARCH, priority 2013, dated 2017).

Assays:
liver cancer [1] = experiment: Liver cancer development in mice fed high-fat diets and given antibiotic cocktail, with oral deoxycholic acid; assay type: in vivo; settings: 40 μg/g body weight orally three times a week, high-fat diet + antibiotic cocktail
Description: From the 13th week after the start of the raising, the antibiotic cocktail was administered to mice fed high-fat diets, which were then further raised. To these mice, 40 μg/g body weight of deoxycholic acid (DCA) or only a vehicle as a control was orally administered three times a week (FIG. 5A). […] The cancer was rarely developed in the control mouse group given only the vehicle, and even if the cancer was developed, its tumor size was small. On the other hand, the deoxycholic acid administration group had multiple cancer (25 or more tumors per individual), and also, its size was large.

liver cancer [2] = experiment: Liver cancer development in DMBA-treated mice fed high-fat diets, antibiotic given in drinking water; assay type: in vivo; settings: high-fat diet, antibiotic in drinking water from 13 weeks old, dissected at the 30th week
Excerpt: An acetone solution containing 0.5% of the carcinogenic substance DMBA (7,12-dimethylberiz[a]anthracene) was applied once to the backs of wild-type (C57BL/6) neonatal mice. The neonatal mice were raised together with their mother mouse by feeding with normal diets (ND) or high-fat diet (HFD) until 4 weeks old. The high-fat diets used were D12492 (Rodent Diet with 60% kcal % Fat; Research Diets, Inc., USA). The neonatal mice were weaned at 4 weeks old and subsequently raised with normal diets or high-fat diet. At 30 weeks old, their livers and lungs were excised, and the presence or absence of cancer development was analyzed. The average body weight of the mice at the time of dissection was 33 g for the mice fed normal diets and 51 g for the mice fed high-fat diets. The mice fed high-fat diets had approximately 1.5 times the body weights of the mice fed normal diets.
DMBA was applied to wild-type neonatal mice, followed by high-fat diet feeding. From 13 weeks old, an antibiotic cocktail (4Abx, antibiotic cocktail administration group) or vancomycin (VCM, vancomycin administration group) mixed with drinking water was administered to the mice. At the 30th week after the start of the raising, their livers were excised, and liver cancer development was analyzed. […]
The mice of each group were dissected at the 30th week, and liver cancer development was analyzed (FIGS. 3C and 3D).

gut microbiota = experiment: Gut microbiota analysis of feces by PCR of 16S rRNA gene; assay type: in vivo, mice
Description: In this Example, in order to search for an intestinal bacterium related to cancer development, how the gut microbiota was atlered was analyzed (FIG. 4). In the experimental schedule shown in FIG. 3A, 3 groups were used: a group fed normal diets, a group fed high-fat diets, and a group fed high-fat diets and also given vancomycin. At the 30th week after the start of the raising, their feces were recovered, and the gut microbiota was analyzed.
The gut microbiota was identified by PCR analysis (Non Patent Literatures 11 and 12). Specifically, DNA was extracted from the feces and purified. The gene encoding 16S rRNA in many types of bacteria was amplified by PCR using universal primers. The V1-V4 hypervariable regions were further amplified, followed by identification.

intestinal bacteria = experiment: Level of gene encoding intestinal bacterial 16S rRNA after antibiotic administration; assay type: in vivo; settings: 17 weeks after antibiotic administration, 30 weeks after birth; high-fat diet; in drinking water; 3 mice per group
Description: DMBA was applied to wild-type neonatal mice, followed by high-fat diet feeding. From 13 weeks old, an antibiotic cocktail (4Abx, antibiotic cocktail administration group) or vancomycin (VCM, vancomycin administration group) mixed with drinking water was administered to the mice. At the 30th week after the start of the raising, their livers were excised, and liver cancer development was analyzed. On the other hand, the raising of a control group was continued in the same way as the aforementioned raising up to the 13th week. The antibiotic cocktail contained ampicillin (1 g/l), neomycin (1 g/l), metronidazole (1 g/l), and vancomycin (500 mg/l). In the case of administering vancomycin alone, 500 mg/l vancomycin was administered.

Structure (SMILES)	liver tumor size (liver cancer [1]; n=3)	tumor number per individual (liver) (liver cancer [1]; n=3)	liver tumor development (liver cancer [1]; vs vehicle)	liver cancer development (tumor number and size) as compared with the control (liver cancer [2])	Gram-negative microbiota, proportion on average (gut microbiota; HFD+VCM group, average (FIG. 4))	cluster XI of the genus Clostridium in gut microbiota (gut microbiota; feces at the 30th week, high-fat diets + vancomycin, n=2)	amount of intestinal bacteria (level of gene encoding intestinal bacterial 16s rRNA) (intestinal bacteria)
C[C@H](CCC(=O)O)[C@H]1CC[C@H]2[C@@H]3CC[C@@H]4C[C@H](O)CC[C@]4(C)[C@H]3C[C@H](O)[C@]12C [deoxycholic acid]	large	≥ 25 tumors per individual	developed a large number of liver tumors	–	–	–	–
CN[C@H](CC(C)C)C(=O)N[C@H]1C(=O)N[C@@H](CC(N)=O)C(=O)N[C@H]2C(=O)N[C@H]3C(=O)N[C@H](C(=O)N[C@H](C(=O)O)c4cc(O)cc(O)c4-c4cc3ccc4O)[C@H](O)c3ccc(c(Cl)c3)Oc3cc2cc(c3O[C@@H]2O[C@H](CO)[C@@H](O)[C@H](O)[C@H]2O[C@H]2C[C@](C)(N)[C@H](O)[C@H](C)O2)Oc2ccc(cc2Cl)[C@H]1O [vancomycin]	–	–	–	developed no liver cancer or developed liver cancer with a smaller tumor number and a smaller size	99%	0%	decreased into a very small level
